{"source": "the supplement of paper PMC10307832", "assay_in_all_cases": "relative viability (nuclei count vs DMSO), 5 days (fraction); higher = more cells survive", "key": {"QS11 + Vorinostat": {"compound": "C1CC2=C(C1)C=C(C=C2)OC3=NC(=C4C(=N3)N(C=N4)CC5=CC=C(C=C5)C6=CC=CC=C6)N[C@@H](CC7=CC=CC=C7)CO [QS11] + O=C(CCCCCCC(=O)Nc1ccccc1)NO [Vorinostat] (partner 1 µM)", "summary_of_the_method": "(§1)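 One day after seeding in 1536-well plates, lung cancer cell lines were dosed by pin tool. Dosing was either single-drug or a fixed anchor-drug dose plus five library-drug doses (not always all listed) in √10 steps. After 5 days, nuclei were stained in one fix-and-stain step and counted on 4× images, and relative viability is the nuclei count of treated wells over that of vehicle wells, given as the median of duplicate plates.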"}, "QS11 + Luminespib": {"compound": "C1CC2=C(C1)C=C(C=C2)OC3=NC(=C4C(=N3)N(C=N4)CC5=CC=C(C=C5)C6=CC=CC=C6)N[C@@H](CC7=CC=CC=C7)CO [QS11] + CCNC(=O)c1noc(-c2cc(C(C)C)c(O)cc2O)c1-c1ccc(CN2CCOCC2)cc1 [Luminespib] (partner 0.01 µM)", "summary_of_the_method": "as §1"}, "QS11 + Palbociclib": {"compound": "C1CC2=C(C1)C=C(C=C2)OC3=NC(=C4C(=N3)N(C=N4)CC5=CC=C(C=C5)C6=CC=CC=C6)N[C@@H](CC7=CC=CC=C7)CO [QS11] + CC(=O)c1c(C)c2cnc(Nc3ccc(N4CCNCC4)cn3)nc2n(C2CCCC2)c1=O [Palbociclib] (partner 0.5 µM)", "summary_of_the_method": "as §1"}, "Darinaparsin + Olaparib": {"compound": "C[As](C)SC[C@H](NC(=O)CC[C@H](N)C(=O)O)C(=O)NCC(=O)O [Darinaparsin] + O=C(c1cc(Cc2n[nH]c(=O)c3ccccc23)ccc1F)N1CCN(C(=O)C2CC2)CC1 [Olaparib] (partner 8 µM)", "summary_of_the_method": "as §1"}, "AZ628 + Linsitinib": {"compound": "CC1=C(C=C(C=C1)NC(=O)C2=CC(=CC=C2)C(C)(C)C#N)NC3=CC4=C(C=C3)N=CN(C4=O)C [AZ628] + C[C@]1(O)C[C@@H](c2nc(-c3ccc4ccc(-c5ccccc5)nc4c3)c3c(N)nccn32)C1 [Linsitinib] (partner 1 µM)", "summary_of_the_method": "as §1"}}, "data": [{"cell line": "LCLC-97TM1", "values": [{"measurement": "relative viability", "setting": "QS11 + Vorinostat; first compound 0.253 µM", "value": 0.722}, {"measurement": "relative viability", "setting": "QS11 + Vorinostat; first compound 2.53 µM", "value": 0.615}, {"measurement": "relative viability", "setting": "QS11 + Vorinostat; first compound 8 µM", "value": 0.85}, {"measurement": "relative viability", "setting": "QS11 + Luminespib; first compound 0.08 µM", "value": 0.709}, {"measurement": "relative viability", "setting": "QS11 + Luminespib; first compound 0.253 µM", "value": 0.907}, {"measurement": "relative viability", "setting": "QS11 + Luminespib; first compound 2.53 µM", "value": 0.768}, {"measurement": "relative viability", "setting": "QS11 + Luminespib; first compound 8 µM", "value": 0.69}, {"measurement": "relative viability", "setting": "QS11 + Palbociclib; first compound 0.253 µM", "value": 0.204}, {"measurement": "relative viability", "setting": "QS11 + Palbociclib; first compound 2.53 µM", "value": 0.213}, {"measurement": "relative viability", "setting": "QS11 + Palbociclib; first compound 8 µM", "value": 0.277}, {"measurement": "relative viability", "setting": "Darinaparsin + Olaparib; first compound 0.08 µM", "value": 0.599}, {"measurement": "relative viability", "setting": "Darinaparsin + Olaparib; first compound 0.8 µM", "value": 0.303}, {"measurement": "relative viability", "setting": "Darinaparsin + Olaparib; first compound 2.53 µM", "value": 0.404}, {"measurement": "relative viability", "setting": "Darinaparsin + Olaparib; first compound 8 µM", "value": 0.612}, {"measurement": "relative viability", "setting": "AZ628 + Linsitinib; first compound 0.08 µM", "value": 0.212}, {"measurement": "relative viability", "setting": "AZ628 + Linsitinib; first compound 0.253 µM", "value": 0.24}, {"measurement": "relative viability", "setting": "AZ628 + Linsitinib; first compound 0.8 µM", "value": 0.179}, {"measurement": "relative viability", "setting": "AZ628 + Linsitinib; first compound 2.53 µM", "value": 0.202}, {"measurement": "relative viability", "setting": "AZ628 + Linsitinib; first compound 8 µM", "value": 0.136}]}]}
